According to paper PMC10253456, “Investigating the Contribution of Major Drug-Metabolising Enzymes to Possum-Specific Fertility Control” (International Journal of Molecular Sciences, 2023):
Read-outs that look alike come from different tables or passages of the source.

What was measured:
UGT2B (heading: UGT2B4) [1] = assay: p-nitrophenol glucuronidation activity in possum liver microsomes; format: biochemical, possum (Trichosurus vulpecula); details: possum (Trichosurus vulpecula)
UGT2B [2] = assay: as above; format: biochemical, possum (Trichosurus vulpecula); details: for % of control (UGT2B4 catalytic activity at 2-fold IC50) / UGT2B4 catalytic activity at 2-fold IC50: compound at estimated 2-fold IC50; for p-nitrophenol glucuronidation (UGT2B) activity, % of the control: at estimated IC50 and 2-fold IC50 values
CYP3A [3] = assay: CYP3A catalytic activity (erythromycin N-demethylation) in mouse liver microsomes; details: for Percent control catalytic activity at estimated IC50 / Percent control catalytic activity at estimated 2-fold IC50: mouse liver microsomes, initial screen n=1; for Percent control catalytic activity at estimated IC50: compounds without reported IC50 at 1 µM; for Percent control catalytic activity at estimated 2-fold IC50: compounds without reported IC50 at 5 µM; for CYP3A catalytic activity, % of the control: at both estimated IC50 and 2-fold IC50 values (ketoconazole 2.5 and 5 µM)
UGT2B (heading: UGT2B4) [4] = assay: in vitro; details: avian (mallards and a swan), pH 7.4
CYP3A [5] = assay: CYP3A catalytic activity (erythromycin N-demethylation) in possum liver microsomes; details: for Percent control catalytic activity at estimated IC50 / Percent control catalytic activity at estimated 2-fold IC50: possum liver microsomes, initial screen n=1; for Percent control catalytic activity at estimated IC50: compounds without reported IC50 at 1 µM; for Percent control catalytic activity at estimated 2-fold IC50: compounds without reported IC50 at 5 µM
UGT2B [6] = details: avian; for % of control (UGT2B4 catalytic activity at 2-fold IC50) / UGT2B4 catalytic activity at 2-fold IC50: compound at estimated 2-fold IC50
UGT2B [7] = assay: p-nitrophenol glucuronidation activity in pooled human liver microsomes
UGT2B [8] = assay: p-nitrophenol glucuronidation activity in mouse liver microsomes
UGT2B (heading: UGT2B4) [9] = assay: in vitro; details: BALB/c, mouse, pH 7.4
UGT2B (heading: UGT2B4) [10] = assay: in vitro; details: human, pH 7.4
[11] = test system: UGT isoforms of the UGT1 and UGT2B families; design: method as in PMID 25008344; details: pooled human liver and intestinal microsomes; read-out: concentration reducing glucuronidation of 4-methylumbelliferone by ~50% of the control; cited from earlier work
mice = details: EE2 5 µg/kg/day; cited from earlier work
[12] = test system: fathead minnows (Pimephales promelas); design: method as in PMID 17517636; details: EE2 5–6 ng/L; cited from earlier work
CYP3A [13] = assay: CYP3A catalytic activity (erythromycin N-demethylation) in pooled human liver microsomes; details: for CYP3A catalytic activity, % of the control: at both estimated IC50 and 2-fold IC50 values (ketoconazole 2.5 and 5 µM)
CYP3A [14] = details: avian
testosterone metabolism = test system: testosterone metabolism; design: method as in PMID 19336903; details: pooled human liver microsomes; cited from earlier work
[15] = test system: UGT2B4, UGT2B7, UGT2B15, and UGT2B17; details: cited from earlier work
[16] = test system: erythromycin N-demethylation; design: method as in PMID 15342469; details: pooled human liver microsomes; read-out: concentration reducing erythromycin N-demethylation by ~50% of the control; cited from earlier work
CYP3A [17] = assay: CYP3A catalytic activity with midazolam and triazolam as substrates; details: erythromycin vs midazolam and triazolam
[18] = test system: cineole metabolism in wild possum liver microsomes; design: method as in PMID 12593759; details: 5 µM ketoconazole; cited from earlier work
[19] = pH 7.4, compound at estimated IC50, read-out: % of control (UGT2B4 catalytic activity at IC50)
[20] = mouse, compound at estimated 2-fold IC50 (5 µM where none reported)
[21] = compound at estimated 2-fold IC50 (5 µM where none reported)
[22] = possum, compound at estimated 2-fold IC50 (5 µM where none reported)
[23] = mouse, compound at estimated 2-fold IC50
[24] = liver microsomes, pH 7.4, probe p-nitrophenol (0.5 mM final, from 50 µL of 5 mM in 500 µL), compound at estimated IC50, read-out: % of control (UGT2B4 catalytic activity at IC50)
[25] = pooled human liver microsomes, compound at estimated 2-fold IC50

| SMILES | % of control (UGT2B4 catalytic activity at 2-fold IC50) (UGT2B [2]) | UGT2B4 catalytic activity at 2-fold IC50 (UGT2B [2]) [µmol/mg/min] | Percent control catalytic activity at estimated IC50 (CYP3A [3]) [percent control] | Percent control catalytic activity at estimated 2-fold IC50 (CYP3A [3]) [percent control] | activity at 30 min (UGT2B (heading: UGT2B4) [4]) [%] | Percent control catalytic activity at estimated IC50 (CYP3A [5]) [percent control] | Percent control catalytic activity at estimated 2-fold IC50 (CYP3A [5]) [percent control] | % of control (UGT2B4 catalytic activity at 2-fold IC50) (UGT2B [6]) | UGT2B4 catalytic activity at 2-fold IC50 (UGT2B [6]) [µmol/mg/min] | activity (UGT2B (heading: UGT2B4) [9]) [%] | activity (UGT2B (heading: UGT2B4) [10]) [%] | % of control (UGT2B4 catalytic activity at 2-fold IC50) (UGT2B [8]; [23]) | UGT2B4 catalytic activity at 2-fold IC50 (UGT2B [8]; [23]) [µmol/mg/min] | other results |
| --- | --- | --- | --- | --- | --- | --- | --- | --- | --- | --- | --- | --- | --- | --- |
| O=c1cc(-c2ccccc2)oc2cc(O)c(O)c(O)c12 [Baicalein] | 106 % of control | 3.91 ± 0.20 | 114 | 99 | 56 | 102 | 112 | 44 % of control | 0.17 ± 0.06 | 96 | 97 | – | – | activity at 30 min (UGT2B (heading: UGT2B4) [1]; [19]): 105%; UGT2B4 catalytic activity at 2-fold IC50 (UGT2B [7]): 3.95; % of control (UGT2B4 catalytic activity at 2-fold IC50) (UGT2B [8]): 95; UGT2B4 catalytic activity at 2-fold IC50 (UGT2B [8]): 3.08±0.04 |
| COc1cc([C@@H]2Oc3cc([C@H]4Oc5cc(O)cc(O)c5C(=O)[C@@H]4O)ccc3O[C@H]2CO)ccc1O [silybin B] | – | – | – | – | – | – | – | – | – | – | – | – | – | IC50 [11]: 87 µM |
| C#C[C@]1(O)CC[C@H]2[C@@H]3CCc4cc(O)ccc4[C@H]3CC[C@@]21C [EE2, ethinylestradiol] | – | – | – | – | – | – | – | – | – | – | – | – | – | effect of developmental exposure on behaviour (mice): behavioural masculinisation; effect of exposure on fish [12]: feminisation of male fathead minnows |
| COc1cc([C@@H]2Oc3ccc([C@H]4Oc5cc(O)cc(O)c5C(=O)[C@@H]4O)cc3O[C@H]2CO)ccc1O [isosilybin B] | – | – | – | – | – | – | – | – | – | – | – | – | – | IC50 [11]: 187 µM |
| O=c1cc(-c2ccccc2)oc2cc(O)ccc12 [7-Hydroxyflavone] | 101 % of control | 3.92 ± 0.02 | 97 | 97 | 150 | 81 | 78 | 92 % of control | 0.38 ± 0.12 | 100 | – | 101 % of control | 2.55 ± 0.18 | activity at 30 min (UGT2B (heading: UGT2B4) [1]; [19]): 100%; CYP3A catalytic activity, % of the control (CYP3A [3]; mouse): > 83 % of the control; % of control (catalytic activity at 2-fold IC50) (CYP3A [3]; [20]): 90 % of control; Catalytic activity at 2-fold IC50 (CYP3A [3]; [20]): 0.40 ± 0.04 nmol/mg/min; CYP3A catalytic activity, % of the control (CYP3A [13]): > 83 % of the control; % of control (catalytic activity at 2-fold IC50) (CYP3A [13]; [21]): 95 % of control; Catalytic activity at 2-fold IC50 (CYP3A [13]; [21]): 0.61 nmol/mg/min; CYP3A catalytic activity, % of the control (CYP3A [5]; possum, at both estimated IC50 and 2-fold IC50 values (or 1 and 5 µM)): > 83 % of the control; % of control (catalytic activity at 2-fold IC50) (CYP3A [5]; [22]): 95 % of control; Catalytic activity at 2-fold IC50 (CYP3A [5]; [22]): 0.38 ± 0.08 nmol/mg/min; reduced catalytic activity of possum CYP3A, % of the control (CYP3A [5]; possum, mainly at 5 µM or an estimated 2-fold IC50, not significantly different): ~ 35 % of the control; CYP3A catalytic activity, % of the control (CYP3A [14]; at both estimated IC50 and 2-fold IC50 values (or 1 and 5 µM)): > 83 % of the control; % of control (catalytic activity at 2-fold IC50) (CYP3A [14]; [21]): 103 % of control; Catalytic activity at 2-fold IC50 (CYP3A [14]; [21]): 0.42 ± 0.07 nmol/mg/min; IC50 (testosterone metabolism): > 100 µM |
| CC(C)(c1ccc(O)cc1)c1ccc(O)cc1 [bisphenol A] | – | – | – | – | – | – | – | – | – | – | – | – | – | type of inhibition ([15]; UGT2B4): competitive; type of inhibition ([15]; UGT2B7, UGT2B15, and UGT2B17): non-competitive |
| CC(=O)O[C@H](CC=C(C)C)C1=CC(=O)c2c(O)ccc(O)c2C1=O [Acetylshikonin] | 101 % of control | 3.70 ± 0.18 | 100 | 93 | 87 | 128 | 112 | 84 % of control | 0.53 ± 0.08 | 93 | 98 | 94 % of control | 2.92 ± 0.22 | activity at 30 min (UGT2B (heading: UGT2B4) [1]; [24]): 96%; % of control (UGT2B4 catalytic activity at 2-fold IC50) (UGT2B [7]; [25]): 100 % of control; UGT2B4 catalytic activity at 2-fold IC50 (UGT2B [7]; [25]): 3.70 µmol/mg/min |
| CC(=O)N1CCN(c2ccc(OCC3COC(Cn4ccnc4)(c4ccc(Cl)cc4Cl)O3)cc2)CC1 (stereo not shown) [Ketoconazole] | – | – | 78 | – | – | 76 | – | – | – | – | – | – | – | p-nitrophenol glucuronidation (UGT2B) activity, % of the control (UGT2B [2]): did not significantly reduce UGT2B activity to less than 50% of the control; p-nitrophenol glucuronidation (UGT2B) activity, % of the control (UGT2B [2]; listed as ketoconazole): > 65 % of the control; CYP3A catalytic activity, % of the control (CYP3A [3]; mouse): < 50 % of the control; IC50 [16]: 0.07 µM; change in the inhibition of the CYP3A enzyme due to substrate choice (present study vs reported study) (CYP3A [17]): > 100 fold; CYP3A catalytic activity, % of the control (CYP3A [13]): 80 % of the control; reduction of catalytic activity of possum CYP3A compared to the control (CYP3A [5]; possum, ketoconazole 5 µM, not statistically significant): approximately 27%; p-nitrophenol glucuronidation (UGT2B) activity, % of the control (UGT2B [6]; at estimated IC50 and 2-fold IC50 values): did not significantly reduce UGT2B activity to less than 50% of the control; p-nitrophenol glucuronidation (UGT2B) activity, % of the control (UGT2B [7]): did not significantly reduce UGT2B activity to less than 50% of the control; p-nitrophenol glucuronidation (UGT2B) activity, % of the control (UGT2B [8]): did not significantly reduce UGT2B activity to less than 50% of the control; formation of all hydroxycineole metabolites (9-, 3-, 7-hydroxycineole), % of the control [18]: approximately 25 % of the control |
| CC(C)=CCC[C@](C)(O[C@@H]1O[C@H](CO)[C@@H](O)[C@H](O)[C@H]1O)[C@H]1CC[C@]2(C)[C@@H]1[C@H](O)C[C@@H]1[C@@]3(C)CC[C@H](O)C(C)(C)[C@@H]3[C@@H](O)C[C@]12C [Ginsenoside F1] | 109 % of control | 4.14 ± 0.18 | 82 | – | 110 | 120 | – | 99 % of control | 0.66 ± 0.14 | 132 | 101 | 157 % of control | 4.36 ± 0.01 | activity at 30 min (UGT2B (heading: UGT2B4) [1]; [24]): 100%; % of control (UGT2B4 catalytic activity at 2-fold IC50) (UGT2B [7]; [25]): 100 % of control; UGT2B4 catalytic activity at 2-fold IC50 (UGT2B [7]; [25]): 4.01 µmol/mg/min |
